# System: lung-cancer cell line KLN205
# Experiment: Percentage of immune cells relative to lung-cancer cell line KLN205
# Assay type: in vivo
# Excerpt: Referring to FIG. 10B, the percentage of immune cells relative to the lung-cancer cell line KLN205 due to PI3K inhibitor treatment is shown. Referring first to FIG. 10B (a), the percentage of CD3+ CD8+ T cells relative to the lung-cancer cell line KLN205 due to PI3K inhibitor treatment is shown. Next, referring to (b) of FIG. 10B, the percentage of CD3+ CD4+ CD25+ Foxp3 T cells relative to lung-cancer cell line KLN205 due to PI3K inhibitor treatment is shown. Next, referring to (c) of FIG. 10B, the percentage of CD3+ TIL cells relative to the lung-cancer cell line KLN205 due to PI3K inhibitor treatment is shown. Next, referring to (d) of FIG. 10B, the percentage of MDSC cells relative to lung-cancer cell line KLN205 due to PI3K inhibitor treatment is shown.
smiles,measurement,setting,value
"Nc1cc(C(F)(F)F)c(-c2cc(N3CCOCC3)nc(N3CCOCC3)n2)cn1 [BKM 120, buparlisib]",average percentage of CD3+ CD4+ CD25+ Foxp3 T cells,35 mpk,17%
same,average percentage of CD3+ CD8+ T cells,35 mpk,39%
same,average percentage of MDSC cells,35 mpk,24%
same,distribution of the percentage of CD3+ CD4+ CD25+ Foxp3 T cells,35 mpk,13 to 24%
same,distribution of the percentage of CD3+ CD8+ T cells,35 mpk,35 to 49%
same,distribution of the percentage of MDSC cells,35 mpk,23 to 25%
same,percentage of CD3+ TIL cells on average,35 mpk,5%
same,average percentage of CD3+ CD4+ CD25+ Foxp3 T cells,50 mpk,15%
same,average percentage of CD3+ CD8+ T cells,50 mpk,41%
same,average percentage of MDSC cells,50 mpk,18%
same,distribution of the percentage of CD3+ CD4+ CD25+ Foxp3 T cells,50 mpk,12 to 17%
same,distribution of the percentage of CD3+ CD8+ T cells,50 mpk,32 to 50%
same,distribution of the percentage of MDSC cells,50 mpk,17 to 19%
same,percentage of CD3+ TIL cells on average,50 mpk,6%

# Reference: patent US20210292710A1, “METHOD FOR ENHANCING IMMUNE FUNCTION OF IMMUNE CELL AND IMMUNE CELL LINE PRODUCED USING THE SAME” (INDUSTRY-ACADEMIC COOPERATION FOUNDATION, YONSEI UNIVERSITY, priority 2020, published 2021)
